Data reported in US20220373536A1, “HIGH-CONTENT ANALYSIS METHOD” (priority 2019, published 2022).

Test system: plasma cells (target cells, CD138+; U-266 or NCI-H929)
Assay: ICNP-based ADCC assay in microwells, NK cells against plasma cells / U-266 cells under anti-CD38 stimulation, time-lapse PI readout
Assay type: cell-based
Excerpt: EDTA bone marrow samples were collected from 13 patients with multiple myeloma (MM, 7 de novo and 6 relapses). 8 primary samples were processed through density centrifugation (Ficoll-Pacque; Merck) in order to obtain mononuclear cells while preserving the original composition of the effector (E) and target (T) cells, i.e., NK and plasma cells, respectively. 5 samples were processed with CD138 Antibody coupled to magnetic beads (Miltenyi Biotec) to obtain a population of white blood cells (WBC), a population which comprises NK cells and is depleted of plasma cells.
The resulting cells were co-cultured with U-266 or NCI-H929 cell lines as target cells. […]
The cells from primary or co-culture samples were seeded in 96-well plates, with a final concentration of 2×10^5 cells/well, with variable E:T ratios. […] Each experiment was analyzed by time lapse in fluorescence microscopy for up to 12 hours.
The images for said plurality of microwells are then acquired and, with a detection algorithm, the areas of interest, where each area of interest corresponds to a single cell, for each of said areas of interest, properties which comprise localization, the intensity of certain markers in each fluorescence channel, the cell area, the position of the center of gravity and the morphology are then measured. […]

Daratumumab
plasma cell death with respect to plasma cell - NK cell distance (10 μg/mL, 1,200 microwells, plasma cells in contact with NK cells, decreases as distance increases, FIG. 11E): maximum
death rate of the plasma cells belonging to pattern 2 (spontaneous death or direct effect of the antibody) (10 μg/mL, pattern 2 microwells (only plasma cells, no NK)): 10.86%
